Test results reported in patent US11571458B2, “Bacteriocins to improve vaginal colonization of hydrogen peroxide producing lactobacillus for female reproductive health” (Osel, Inc., priority 2018, dated 2023).

B1: KNWSVAKCGGTIGTNIAIGAWRGARAGSFFGQPVSVGTGALIGASAGAIGGSVQCVGWLAGGGR (protein, listed as Lactobacillus paragasseri)
chain: KNWSVAKCGGTIGTNIAIGAWRGARAGSFFGQPVSVGTGALIGASAGAIGGSVQCVGWLAGGGR
notes: α peptide of two-component bacteriocin gassericin K7A from L. paragasseri K7

How the values were obtained:
[1] = tested on: L. crispatus SJ-3C; experiment: combined use of K7 bacteriocins and metronidazole, OD 600 nm; format: cell-based, Lactobacillus crispatus; settings: 48 hours; K7 bacteriocin 80 BU/mL, metronidazole 42 μg/mL
Protocol: (§1) The effectiveness of the combined use of the K7 bacteriocins and metronidazole was tested against L. iners and G. vaginalis in vitro. Cultures of L. iners HM-702 and G. vaginalis HM-133, L. iners+G. vaginalis co-cultures, and L. crispatus SJ-3C were obtained as described previously in Example 1. Overnight cultures of L. iners, G. vaginalis, and L. crispatus were diluted in fresh growth media to concentrations of approximately 10^5 CFU/mL to be tested against K7 bacteriocin (from Example 1), metronidazole (Sigma-Aldrich, USA), and K7 bacteriocin+metronidazole (combined). To each culture of L. iners, G. vaginalis, the L. iners+G. vaginalis co-culture, and L. crispatus was added semi-purified K7 bacteriocin (80 BU/mL, quantified using L. iners as indicator), metronidazole (42 μg/mL), or the K7 bacteriocin+metronidazole combination, and incubated anaerobically at 37° C. for 48 hours. As controls, L. iners, G. vaginalis, the L. iners+G. vaginalis, and L. crispatus were incubated alone with conditioned media for 48 hours as well.

[2] = tested on: L. iners HM-702; experiment: as above; format: cell-based, Lactobacillus iners; settings: 48 hours; K7 bacteriocin 80 BU/mL, metronidazole 42 μg/mL
Protocol: as §1

[3] = tested on: G. vaginalis HM-133; experiment: as above; format: cell-based, Gardnerella vaginalis; settings: 48 hours; K7 bacteriocin 80 BU/mL, metronidazole 42 μg/mL
Protocol: as §1

[4] = tested on: Lactobacillus sakei subsp. sakei ATCC 15521; experiment: critical dilution assay (bacteriocin activity / MIC); format: cell-based; settings: ratio of peptides about 1:1 (w/w)
[5] = tested on: Lactobacillus iners; experiment: as above; format: cell-based; settings: for L. iners HM-702 MIC: ratio of peptides about 1:1 (w/w); for anti-L. iners activity of purified chromatography fraction: reverse phase fractions identified by MALDI-TOF; for L. iners HM-702 MIC / MIC against L. iners: L. iners HM-702; for MIC against L. iners: molar value given in brackets

Row | Molecule | inhibition of L. crispatus SJ-3C (OD 600 nm) [1] | sensitivity of L. iners (OD 600 nm) [2] | sensitivity of G. vaginalis (OD 600 nm) [3] | L. sakei subsp. sakei ATCC 15521 MIC [4] | L. iners HM-702 MIC ([5]; critical dilution assay) | anti-L. iners activity of purified chromatography fraction [5] | MIC against L. iners [5] | activity of peptide expressed as MBP fusion in E. coli ([5]; critical dilution assay, data not shown)
1 | Cc1ncc([N+](=O)[O-])n1CCO [metronidazole] | not significantly inhibited | not sensitive | sensitive |  |  |  |  | 
2 | NNVNWGSVAGSCGKGAVMEIYFGNPILGCANGAATSLVLQTASGIYKNYQKKR (listed as Lactobacillus paragasseri) [GasK7A β, β peptide of two-component bacteriocin gassericin K7A] |  |  |  | >4 µg/mL | >4 µg/mL |  |  | 
3 | NKWGNAVIGAATGATRGVSWCRGFGPWGMTACGLGGAAIGGYLGYKSN (listed as Lactobacillus paragasseri) [GasK7B β, β peptide of two-component bacteriocin gassericin K7B from L. paragasseri K7] |  |  |  | 0.025 µg/mL | >0.1 µg/mL | minor peak of activity |  | 
4 | RNNWAANIGGAGGATVAGWALGNAVCGPACGFVGAHYVPIAWAGVTAATGGFGKIRK (listed as Lactobacillus paragasseri) [GasK7B α, α peptide of two-component bacteriocin gassericin K7B from L. paragasseri K7] |  |  |  | 0.0016 µg/mL | 0.025 µg/mL | greatest anti-L. iners activity | 5 nM | comparable to the peptide isolated from K7
5 | B1 |  |  |  | 0.0094 µg/mL | 0.075 µg/mL |  | 12 nM | 
